Measured values from PMC10223470 (Molecules, 2023).
Like-named read-outs stand apart in the source and are kept apart here.

Columns and labels:
human D2S receptor [1] = molecular target: T1, human D2S receptor (Homo sapiens, UniProt P14416); experiment: Competition radioligand binding at human D2 receptor ([3H]-Spiperone, CHO-K1 membranes); settings: mean ± SEM of 2–3 independent experiments in duplicate; read-out: huD2 Ki
T1 construct: expressed in transfected cells; host or cells: CHO-K1
Description: Experiments were carried out in membranes isolated from a CHO-K1 cell line stably overexpressing the cloned human D2S receptor.
(§1) Competition radioligand binding assays were performed on membranes isolated from cell lines stably expressing the cloned human receptors, which were either in-house or commercially available. […] Assays (250 μL assay final volume) were carried out in 96-well polypropylene plates in duplicate. In short, the suspension of appropriate membrane protein was incubated in an assay buffer with the addition of the corresponding radioligand, in the presence or absence of a tested compound or reference compound. […] After the incubation, the content of the test plates was transferred to 96 well plates with glass fiber filter GF/B or GF/C, previously pretreated with polyethyleneimine (PEI), and rapidly filtered with the use of vacuum, followed by rapid washing with cold (4 °C) wash buffer. After that, the filter plates were dried at 60 °C for 1 h. Then, 30 μL of liquid scintillation cocktail (UniverSol-ES, MP Biomedicals, Solon, OH, USA) was added to each well of the filter plates, and the radioactivity was measured in a MicroBeta^2 microplate scintillation counter (PerkinElmer, Madrid, Spain).
(§2) Competition binding curves were fitted to a one-site competition binding model (Fit Ki) with the use of Prism 7 software (GraphPad, San Diego, CA, USA). logKi (log of the equilibrium dissociation constant (Ki)) values were obtained after constraining the concentration of radioligand employed in the assay and its dissociation constant (KD) as determined in saturation radioligand binding assays.

[2] = molecular target: T2, human dopamine D1 receptor (Homo sapiens, UniProt P21728); experiment: Competition radioligand binding at human D1 receptor ([3H]-SCH-23390); settings: mean ± SEM of 2 independent experiments, read-out: huD1 % inh. at 10 µM
T2 construct: expressed in transfected cells; host or cells: CHO-K1
T2 sequence (P21728 whole entry): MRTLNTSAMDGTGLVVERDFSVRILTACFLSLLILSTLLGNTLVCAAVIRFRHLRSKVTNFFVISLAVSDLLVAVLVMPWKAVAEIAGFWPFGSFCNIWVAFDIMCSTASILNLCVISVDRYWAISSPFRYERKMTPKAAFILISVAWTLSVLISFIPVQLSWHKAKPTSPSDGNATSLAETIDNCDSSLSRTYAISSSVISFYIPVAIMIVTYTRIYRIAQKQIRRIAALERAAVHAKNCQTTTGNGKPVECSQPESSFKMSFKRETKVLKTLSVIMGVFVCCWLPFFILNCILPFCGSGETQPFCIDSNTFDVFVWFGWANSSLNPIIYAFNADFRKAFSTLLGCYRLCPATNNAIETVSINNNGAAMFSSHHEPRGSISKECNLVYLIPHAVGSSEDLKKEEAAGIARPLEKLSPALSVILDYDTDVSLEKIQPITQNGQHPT
Description: as §1, §2

[3] = molecular target: T3, human dopamine D3 receptor (Homo sapiens, UniProt P35462); experiment: Competition radioligand binding at human D3 receptor ([3H]-Spiperone); settings: mean ± SEM of 2 independent experiments, read-out: huD3 % inh. at 10 µM
T3 construct: expressed in transfected cells; host or cells: CHO-K1
T3 sequence (P35462 whole entry): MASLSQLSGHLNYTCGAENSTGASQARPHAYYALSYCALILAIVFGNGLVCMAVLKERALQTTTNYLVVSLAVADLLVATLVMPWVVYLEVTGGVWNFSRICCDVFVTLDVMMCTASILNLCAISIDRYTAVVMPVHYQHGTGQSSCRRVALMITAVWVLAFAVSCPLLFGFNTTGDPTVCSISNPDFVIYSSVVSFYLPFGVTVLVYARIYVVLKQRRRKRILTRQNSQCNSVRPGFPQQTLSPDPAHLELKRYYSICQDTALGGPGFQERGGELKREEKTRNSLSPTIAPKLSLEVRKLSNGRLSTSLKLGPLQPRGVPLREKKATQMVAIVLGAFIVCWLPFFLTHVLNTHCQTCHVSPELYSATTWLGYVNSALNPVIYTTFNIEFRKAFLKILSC
Description: as §1, §2

human 5-HT1A receptor [4] = molecular target: T4, human 5-HT1A receptor (Homo sapiens, UniProt P08908); experiment: Competition radioligand binding at human 5-HT1A receptor ([3H]-8-OH-DPAT); settings: mean ± SEM of 2 independent experiments, read-out: hu5-HT1A % inh. at 10 µM
T4 construct: expressed in transfected cells; host or cells: HEK293
T4 sequence (P08908 1-422): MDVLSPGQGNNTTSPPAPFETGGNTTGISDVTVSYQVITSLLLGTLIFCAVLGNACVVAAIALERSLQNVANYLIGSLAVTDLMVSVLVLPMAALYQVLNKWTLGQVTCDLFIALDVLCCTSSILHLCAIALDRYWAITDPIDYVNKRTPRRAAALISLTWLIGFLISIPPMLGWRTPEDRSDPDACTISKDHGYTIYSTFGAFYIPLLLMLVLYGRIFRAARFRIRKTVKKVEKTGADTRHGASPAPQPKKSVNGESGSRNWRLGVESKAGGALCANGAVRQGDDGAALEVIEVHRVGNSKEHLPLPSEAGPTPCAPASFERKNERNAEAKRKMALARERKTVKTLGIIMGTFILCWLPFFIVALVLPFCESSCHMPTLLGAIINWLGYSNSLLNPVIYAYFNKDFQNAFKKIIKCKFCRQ
Description: as §1, §2

human 5-HT2A receptor [5] = molecular target: T5, human 5-HT2A receptor (Homo sapiens, UniProt P28223); experiment: Competition radioligand binding at human 5-HT2A receptor ([3H]-Ketanserin); settings: mean ± SEM of 2 independent experiments, read-out: hu5-HT2A % inh. at 10 µM
T5 construct: expressed in transfected cells; host or cells: CHO-K1
T5 sequence (P28223 whole entry): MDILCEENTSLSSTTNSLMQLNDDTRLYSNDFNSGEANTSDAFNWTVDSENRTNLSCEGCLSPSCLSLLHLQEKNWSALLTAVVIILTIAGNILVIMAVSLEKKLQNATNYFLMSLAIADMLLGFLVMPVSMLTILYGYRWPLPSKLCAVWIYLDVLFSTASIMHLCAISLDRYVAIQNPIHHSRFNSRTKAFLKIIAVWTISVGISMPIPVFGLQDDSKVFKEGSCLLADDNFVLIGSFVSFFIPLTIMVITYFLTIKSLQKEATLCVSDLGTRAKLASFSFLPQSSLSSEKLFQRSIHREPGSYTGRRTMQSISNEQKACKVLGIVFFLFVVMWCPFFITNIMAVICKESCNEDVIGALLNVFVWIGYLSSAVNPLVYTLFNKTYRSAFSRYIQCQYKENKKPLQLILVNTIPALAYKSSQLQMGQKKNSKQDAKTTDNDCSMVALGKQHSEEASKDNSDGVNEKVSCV
Description: as §1, §2

human 5-HT7 receptor = molecular target: T6, human 5-HT7 receptor (Homo sapiens, UniProt P34969); experiment: Competition radioligand binding at human 5-HT7 receptor ([3H]-SB269970); settings: mean ± SEM of 2 independent experiments, read-out: hu5-HT7 % inh. at 10 µM
T6 construct: expressed in transfected cells; host or cells: HEK293
T6 sequence (P34969 whole entry): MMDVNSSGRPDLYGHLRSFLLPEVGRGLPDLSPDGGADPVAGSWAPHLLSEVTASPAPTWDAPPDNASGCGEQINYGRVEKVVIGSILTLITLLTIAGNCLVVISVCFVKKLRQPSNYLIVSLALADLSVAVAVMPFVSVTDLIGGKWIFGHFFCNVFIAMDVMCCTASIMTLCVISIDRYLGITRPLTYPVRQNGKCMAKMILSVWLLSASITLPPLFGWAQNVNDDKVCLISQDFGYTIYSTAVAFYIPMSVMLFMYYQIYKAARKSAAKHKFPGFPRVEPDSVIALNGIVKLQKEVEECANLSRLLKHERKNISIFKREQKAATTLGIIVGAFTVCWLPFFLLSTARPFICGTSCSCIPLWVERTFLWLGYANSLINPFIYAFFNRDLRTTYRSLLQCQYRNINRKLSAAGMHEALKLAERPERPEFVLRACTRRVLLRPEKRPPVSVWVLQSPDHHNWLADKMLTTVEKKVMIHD
Description: as §1, §2

human D2S receptor [6] = molecular target: T1, human D2S receptor; experiment: Functional assays of cAMP signalling at D2 receptors (CHO-K1 cells, HTRF); assay type: cell-based; settings: for Kb: antagonism of 1 µM dopamine response; for efficacy at D2 receptor (mode of action): cAMP signaling, CHO-K1 cells
Description: The assessment of the activity of selected compounds at the D2 receptor was performed in cell-based functional assays of cAMP signaling, in the CHO-K1 cell line with stable expression of the cloned human D2S receptor, which was also employed for the radioligand binding assays. For D2 receptor antagonism, test compounds were dispensed into an empty 96-well plate (Isoplate-96 Black Frame White Well, PerkinElmer España SL, Madrid, Spain) with the use of the dispensing noncontact Echo 550 acoustic liquid handler (LABCYTE Inc., San Jose, CA, USA). Compounds were handled from frozen 10^−2 M stock solutions in 100% DMSO, from which serial 1000× solutions were prepared in 100% DMSO at the time of the assay, keeping vehicle concentration (0.1% DMSO) constant in the assay. Vials containing viable frozen cells were quickly thawed in a 37 °C water bath and cells were seeded into the assay plate in assay buffer (kit stimulation buffer containing 500 µM 3-isobutyl-1-methylxanthine (IBMX), which was directly added to the buffer as powder). […] After 10 min incubation at 37 °C, 10 µM forskolin was added to the corresponding wells, and incubation was continued for 5 min. After this time, cellular cAMP levels were quantified using the homogeneous time-resolved fluorescence (HTRF)-based cAMP Gs dynamic kit (Cisbio, Bioassays, Codolet, France) according to the manufacturer’s protocol. […] Basal cAMP levels were determined in control wells in the absence of compound, agonist, and forskolin.

human D2S receptor [7] = molecular target: T1, human D2S receptor; settings: radioligand binding; ref [10]; read-out: huD2 Ki; cited from earlier work
[8] = molecular target: T2, human dopamine D1 receptor; settings: ref [10]; cited from earlier work
[9] = molecular target: T3, human dopamine D3 receptor; settings: ref [10]; cited from earlier work
human 5-HT1A receptor [10] = molecular target: T4, human 5-HT1A receptor; settings: ref [10]; cited from earlier work
human 5-HT2A receptor [11] = molecular target: T5, human 5-HT2A receptor; settings: ref [10]; cited from earlier work
[12] = Leff-Dougall variant of Cheng-Prusoff, read-out: D2 Signalling (cAMP) Kb (Mean)

T1 sequence (P14416 1-414 isoform P14416-2): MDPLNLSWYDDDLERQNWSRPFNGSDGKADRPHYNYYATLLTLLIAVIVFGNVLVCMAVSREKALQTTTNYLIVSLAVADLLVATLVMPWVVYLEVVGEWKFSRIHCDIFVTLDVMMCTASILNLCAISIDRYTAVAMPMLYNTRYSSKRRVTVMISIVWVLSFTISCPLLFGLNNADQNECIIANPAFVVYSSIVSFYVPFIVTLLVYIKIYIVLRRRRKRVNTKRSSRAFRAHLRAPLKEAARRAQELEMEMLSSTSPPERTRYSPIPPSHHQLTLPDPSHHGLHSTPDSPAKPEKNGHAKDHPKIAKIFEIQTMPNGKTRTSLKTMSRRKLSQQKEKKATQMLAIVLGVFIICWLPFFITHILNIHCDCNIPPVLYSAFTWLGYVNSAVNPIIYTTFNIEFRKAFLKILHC

SMILES	Ki (human D2S receptor [1]) [nM]	inhibition at 10 µM [2] [%]	inhibition at 10 µM [3] [%]	inhibition at 10 µM (human 5-HT1A receptor [4]) [%]	inhibition at 10 µM (human 5-HT2A receptor [5]) [%]	inhibition at 10 µM (human 5-HT7 receptor) [%]	Kb (human D2S receptor [6]; forskolin-stimulated cAMP, three independent experiments, read-out: D2 Signalling (cAMP) pKb (Mean ± SEM) (converted)) [nM]	Kb (human D2S receptor [6]; [12]) [nM]	efficacy at D2 receptor (mode of action) (human D2S receptor [6])	Ki (human D2S receptor [7]) [nM]	activity at dopamine D1 receptor [8]	activity at dopamine D3 receptor [9]	activity at serotonin 5-HT1A receptor (human 5-HT1A receptor [10])	activity at serotonin 5-HT2A receptor (human 5-HT2A receptor [11])
Cc1ccc(NC(=O)CCN2C(=O)CSc3ccccc32)cc1 [Compound 14, 3-(3-Oxo-2,3-dihydro-4H-benzo[b][1,4]thiazin-4-yl)-N-(p-tolyl)propanamide]	676 ± 134	15 ± 2	8 ± 4	27 ± 2	15 ± 1	0	117	119	antagonism	–	–	–	–	–
O=C(CCN1C(=O)CSc2ccccc21)Nc1ccc([N+](=O)[O-])cc1 [Compound 23, N-(4-Nitrophenyl)-3-(3-oxo-2,3-dihydro-4H-benzo[b][1,4]thiazin-4-yl)propanamide]	724 ± 114	12 ± 2	4 ± 3	22 ± 3	23 ± 3	0	–	113	antagonism	–	–	–	–	–
O=C(CCN1C(=O)CSc2ccccc21)Nc1ccc(C(F)(F)F)cc1 [Compound D2AAK2]	–	–	–	–	–	–	–	–	–	321 ± 25	not active	not active	not active	not active
